Laboratory results from ChEMBL document CHEMBL4888484, “Replenishing the malaria drug discovery pipeline: Screening and hit evaluation of the MMV Hit Generation Library 1 (HGL1) against asexual blood stage Plasmodium falciparum ,using a nano luciferase reporter read-out” (2022).

How the values were obtained:
Plasmodium falciparum [1] = experiment: Hit confirmation in dose-response curve in NF54 nanoGlo assay, at 72h; format: functional, organism-based, Erythrocyte; design: timepoint 72 hour; settings: Plasmodium falciparum, NF54, Erythrocyte, 72 h
Plasmodium falciparum [2] = experiment: Hit confirmation in dose-response curve in NF54 pLDH assay, at 72h; format: functional, organism-based; design: timepoint 72 hour; settings: NF54, Erythrocyte
Plasmodium falciparum [3] = experiment: Hit confirmation in dose-response curve in Dd2 pLDH assay, at 72h; format: functional, organism-based; design: timepoint 72 hour; settings: Dd2, Erythrocyte
Plasmodium falciparum [4] = experiment: Hit confirmation in dose-response curve in NF54 nanoGlo assay, at 12h; format: functional, organism-based, Erythrocyte; design: timepoint 12 hour; settings: Plasmodium falciparum, NF54, Erythrocyte, 12 h
[5] = Hit confirmation in dose-response curve in HepG2 cytotoxicity assay, at 72h; format: toxicity, cell-based; design: timepoint 72 hour; settings: human, HepG2 cells

Row | IC50 (Plasmodium falciparum [1]) [µM] | IC50 (Plasmodium falciparum [2]) [µM] | IC50 (Plasmodium falciparum [3]) [µM] | IC50 (Plasmodium falciparum [4]) [µM] | Structure (SMILES) | IC50 at 72 h [5] [µM]
1 | 6.03 | 11 | 10.2 | > 10 | CCn1cc(-c2nc(-c3ccccc3C)no2)c(=O)c2cc(F)c(N3CCCCC3)cc21 | > 10
2 | 3.09 | 7.94 | 7.24 | > 10 | c1ccc(-c2noc(-c3ccc(NC4CCCCC4)nn3)n2)cc1 | > 10
3 | 2.09 | 4.07 | 6.92 | > 10 | Cc1ccc(OCC(=O)Nc2cc(C)nn2-c2nc3c(cnn3-c3ccc(C)c(C)c3)c(=O)[nH]2)cc1 | > 10
4 | 2.63 | 3.47 | 3.55 | 5.89 | O=C(CN1C=CCC=C1c1nc(-c2ccc(Br)cc2)cs1)c1ccccc1 | > 10
5 | 4.57 | 9.55 | > 10 | 6.61 | CCc1c2c(=O)n(-c3nc4ccccc4s3)[nH]c2cc(=O)n1CCCN1CCOCC1 | > 10
6 | 1.66 | 3.63 | 2.63 | 4.07 | COc1ccc(CNCCC2C(C)CN(C)C(C)C2Cc2ccccc2)cc1 (stereo not given) | > 10
7 | 0.603 | 1.29 | 1.12 | 1.2 | CCN(CC)CC(O)COc1c(Br)cc(C(C)(C)c2cc(Br)c(OCC(O)CN(CC)CC)c(Br)c2)cc1Br (stereo not given) | 5.75
8 | > 10 | > 10 | > 10 | > 10 | NC(=O)C(NC(=O)c1cccc(Cl)c1)C(N)=O | > 10
9 | 0.832 | 0.759 | 1 | > 10 | CCOc1ccc(-[n+]2cc(-c3ccccc3)n3c2CCC3)cc1 | > 10
10 | 1.55 | 3.8 | 2.88 | 3.98 | COc1ccc2[nH]c3c(c2c1)CC(C(=O)O)NC3c1ccc(OC)c(CN2CCN(c3ccccc3F)CC2)c1 (stereo not given) | > 10
11 | 2.24 | 3.72 | 2 | 5.01 | COc1ccc(CC(=N)Nc2cc3cc(OC)c(OC)cc3c(Cc3ccc(OC)c(OC)c3)n2)cc1OC | > 10
12 | 2.09 | 6.46 | 4.27 | > 10 | O=C1NC(c2ccccc2)=NC12CCN(Cc1c(F)cccc1F)CC2 | > 10
13 | 2.51 | 3.72 | 3.02 | > 10 | CCCN(CCC)CCN1C(=O)[C@@H]2C(C(=O)Nc3cc(Cl)cc(Cl)c3)[C@@H]3C=C[C@]2(O3)C1C(=O)NC1CCCCC1 (stereo not given in full) | > 10
14 | 2.75 | > 10 | > 10 | 1.51 | Cc1ccc([C@H](c2c[nH]c3ccccc23)N(C)C(=O)C(C)C)cc1 | > 10
15 | 1.82 | 4.07 | 3.24 | > 10 | Fc1ccccc1N1CCN(C2CCN(Cc3c[nH]c4ccccc34)CC2)CC1 | > 10
16 | 0.513 | 0.562 | 0.447 | 0.661 | C[C@@H](CN)N(C)c1ccnc2cc(Br)cnc12 | > 10
17 | 1.51 | > 10 | > 10 | 0.525 | Cc1ccc(N2C(=O)C[C@]3(CC3(c3ccccc3)c3ccccc3)C2=O)cc1 | > 10
18 | 2.04 | 3.02 | 2.69 | > 10 | Cc1ccc2nc(-c3cc4ccccc4o3)cn2c1 | > 10
19 | 1 | 1.2 | 1.1 | 3.16 | Cc1cccc2c(-c3cc(N)nc(N)n3)c[nH]c12 | > 10
20 | 1.51 | > 10 | 4.07 | 1.74 | COc1ccc(-c2cc(C(F)(F)F)nc(-n3nc(-c4cccc(OC)c4)c(Cl)c3-c3cccc(OC)c3)n2)cc1 | > 10
21 | 1.95 | 3.24 | 3.31 | > 10 | O=C(Nc1nncs1)c1cccc(C(=O)Nc2nncs2)n1 | > 10
22 | 3.24 | 5.25 | 7.94 | > 10 | O=C(Cc1ccc(N(Cc2cccc(F)c2)C(=O)c2cccc(F)c2)cc1)NCCN1CCCCC1 | > 10
23 | 1.17 | 1.58 | 1.26 | > 10 | COc1ccc2c(/C=C/c3cc[n+](C)cc3)cn(Cc3ccccc3)c2c1 | > 10

Row | IC50 (Plasmodium falciparum [1]) [µM] | IC50 (Plasmodium falciparum [2]) [µM] | IC50 (Plasmodium falciparum [3]) [µM] | IC50 (Plasmodium falciparum [4]) [µM] | Structure (SMILES) | IC50 at 72 h [5] [µM]
24 | 2.88 | 4.47 | 3.89 | > 10 | CC1CCC(c2noc([C@H]3CCO[C@@H]3c3cncc(Br)c3)n2)CC1 (stereo not given in full) | > 10
25 | 2.45 | > 10 | 9.55 | 4.9 | COc1ccc(-c2cc3n(n2)C[C@@](C)(C(=O)NCc2ccccc2)N(Cc2ccc4c(c2)OCO4)C3=O)cc1 | > 10
26 | 2.14 | 3.63 | 2.82 | 3.63 | CNC(=O)[C@@H]1C[C@H](NCc2cc(OC)c(OC)c(OC)c2)CN1CC(c1ccccc1)c1ccccc1 | > 10
27 | 1.1 | > 10 | > 10 | 0.407 | Cc1c(-c2nn(-c3nc(C4CC4)cc(C(F)(F)F)n3)c(-c3cnn(C)c3C)c2Cl)cnn1C | > 10
28 | 6.61 | > 10 | > 10 | 2 | Brc1cccc(-c2ccc(-c3cc(-c4ccccc4)nnc3-c3ccccc3)o2)c1 | > 10
29 | 1.7 | 2.82 | 3.16 | 2.75 | CNCCc1c(-c2ccccc2)[nH]n(-c2ccccc2)c1=O | > 10
30 | 0.479 | 0.813 | > 10 | > 10 | COc1nc(-c2cccc(C(=O)N3C[C@@H]4CC[C@H](C3)C(=O)N4)c2)ncc1F | > 10
31 | 2.4 | 3.89 | 4.17 | 9.12 | Cc1ccc(C(=O)Nc2cc3c4c(c2)C2CCCC2CN4CC2CCCC32)cc1 (stereo not given) | > 10
32 | 3.02 | 3.24 | 2.88 | > 10 | Cc1ccc[n+](Cc2ccc3ccccc3n2)c1 | > 10
33 | 3.31 | 4.47 | 4.37 | 5.62 | Cc1ccc(OCCNc2cc([C@H]3C[C@H](N)C3)nc(C3CC3)n2)cc1C | > 10
34 | 1.29 | 1.45 | 1.17 | 2.82 | COc1ccc(CN(Cc2ccncc2)CC2CCN(C3CCN(C)CC3)CC2)c(F)c1 | > 10
35 | 2.57 | > 10 | > 10 | 1.62 | COc1ccc(CC(=O)NCCn2c(C(F)(F)F)nc3ccccc32)cc1 | > 10
36 | 2.69 | 7.41 | 3.72 | > 10 | CCNC(=O)N1CC[C@H](Oc2ccc3ccccc3n2)C1 | > 10
37 | 2.63 | 6.17 | 3.8 | 7.24 | NC(=O)c1ccc(C(F)(F)F)n(C[C@H](O)c2cc(Cl)ccc2Cl)c1=O | > 10
38 | 0.288 | 2.88 | 1.82 | 0.912 | CCC(C(=O)Nc1ccc2c(c1)CN(CCc1ccc(OC)c(OC)c1)C(=O)C(C)O2)c1ccccc1 (stereo not given) | > 10
39 | 1.95 | 4.37 | 4.37 | 2.95 | COc1ccc(C)c2sc(N(CCCn3ccnc3)C(=O)Cc3ccc(F)cc3)nc12 | > 10
40 | 1.51 | > 10 | > 10 | 0.501 | Cn1c(N)c(S(=O)(=O)N2CCN(c3ccccc3Cl)CC2)c(=O)n(C)c1=O | > 10
41 | 2.51 | 8.32 | 4.27 | 4.79 | Cc1ccc(S(=O)(=O)Nc2c(S(=O)(=O)c3ccc(C)cc3)c3nc4ccccc4nc3n2CCC(C)C)cc1 | > 10
42 | 4.27 | > 10 | 5.25 | 7.59 | COc1cc2ncc3c(-c4ccc(C)c(C)c4)n[nH]c3c2cc1OC | > 10
43 | 1.66 | 3.31 | 1.91 | > 10 | COc1c2c(cc3c1[C@@H](C#CCOc1ccccc1)[N+](C)(C)CC3)OCO2 | > 10
44 | 1.86 | 2.34 | 1.66 | > 10 | Cc1nn(C(C)(C)C)c2nc(C3CC3)cc(C(=O)N(C)c3ccccc3)c12 | > 10
45 | 2.82 | 4.79 | 4.27 | 3.02 | O=C(Nc1onc2c1CCC2)c1ccc2ccccc2c1 | 4.07

Row | Structure (SMILES) | IC50 (Plasmodium falciparum [1]) [µM] | IC50 (Plasmodium falciparum [2]) [µM] | IC50 (Plasmodium falciparum [3]) [µM] | IC50 (Plasmodium falciparum [4]) [µM] | IC50 at 72 h [5] [µM]
46 | Cc1cc(=O)c(OCC(=O)N2CCN([C@@H](c3ccccc3)c3ccc(Cl)cc3)CC2)c[nH]1 | 1.86 | 5.01 | 3.47 | > 10 | > 10
47 | CCCC[C@H](Oc1ccc(C(C)(C)CC)cc1C(C)(C)CC)C(=O)Nc1ccc(NC(=O)C(F)(F)C(F)(F)C(F)(F)F)c(O)c1 | 2.95 | > 10 | 3.72 | 7.24 | > 10
48 | C=CCCC(CN1C[C@H]2CC=CC[C@H]2C1)Oc1ncc(F)cn1 (stereo not given in full) | 0.0178 | 0.0224 | > 10 | 7.41 | > 10
